Source: PMC9599461, “Stereoselectivity in the Membrane Transport of Phenylethylamine Derivatives by Human Monoamine Transporters and Organic Cation Transporters 1, 2, and 3” (Biomolecules, 2022)
Where two headings read alike, the source gives them in different places.

What was measured:
[1] = molecular target: T1, SERT (Homo sapiens, UniProt P31645);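 note: uptake into HEK293 cells stably expressing human SERT over 2 min, enantiomers measured in cell lysate by chiral HPLC-MS/MS, normalized to total protein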
T1 sequence (P31645 whole entry): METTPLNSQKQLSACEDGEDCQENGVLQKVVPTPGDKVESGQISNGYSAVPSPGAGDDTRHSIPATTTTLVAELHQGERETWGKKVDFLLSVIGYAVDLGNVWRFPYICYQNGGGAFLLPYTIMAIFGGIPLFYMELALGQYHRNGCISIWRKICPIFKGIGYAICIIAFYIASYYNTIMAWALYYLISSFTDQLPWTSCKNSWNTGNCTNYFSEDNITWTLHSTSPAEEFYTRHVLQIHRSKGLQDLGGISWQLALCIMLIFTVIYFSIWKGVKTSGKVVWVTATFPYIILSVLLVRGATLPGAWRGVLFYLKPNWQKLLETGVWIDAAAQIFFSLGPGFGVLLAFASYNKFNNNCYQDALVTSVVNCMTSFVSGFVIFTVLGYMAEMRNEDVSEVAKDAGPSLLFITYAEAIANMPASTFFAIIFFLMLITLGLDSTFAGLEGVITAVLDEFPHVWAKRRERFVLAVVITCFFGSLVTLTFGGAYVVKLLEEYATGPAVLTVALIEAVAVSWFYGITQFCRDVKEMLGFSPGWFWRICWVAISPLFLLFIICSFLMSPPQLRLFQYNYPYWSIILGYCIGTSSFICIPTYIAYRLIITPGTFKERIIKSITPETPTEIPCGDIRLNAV

[2] = molecular target: NET (Homo sapiens, UniProt P23975); experiment: Stereoselective uptake into NET-overexpressing HEK293 cells; settings: for Vmax ± SEM: net uptake; for Clint ± SEM: quotient of vmax over Km; for Stereoselectivity ClInt / Stereoselectivity Vmax: given as for (S) or for 2;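 for all read-outs here: intracellular enantiomers quantified in cell lysates by chiral HPLC-MS/MS after a 2 min substrate incubation, with uptake normalized to total cellular protein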
Chain of NET (P23975 whole entry): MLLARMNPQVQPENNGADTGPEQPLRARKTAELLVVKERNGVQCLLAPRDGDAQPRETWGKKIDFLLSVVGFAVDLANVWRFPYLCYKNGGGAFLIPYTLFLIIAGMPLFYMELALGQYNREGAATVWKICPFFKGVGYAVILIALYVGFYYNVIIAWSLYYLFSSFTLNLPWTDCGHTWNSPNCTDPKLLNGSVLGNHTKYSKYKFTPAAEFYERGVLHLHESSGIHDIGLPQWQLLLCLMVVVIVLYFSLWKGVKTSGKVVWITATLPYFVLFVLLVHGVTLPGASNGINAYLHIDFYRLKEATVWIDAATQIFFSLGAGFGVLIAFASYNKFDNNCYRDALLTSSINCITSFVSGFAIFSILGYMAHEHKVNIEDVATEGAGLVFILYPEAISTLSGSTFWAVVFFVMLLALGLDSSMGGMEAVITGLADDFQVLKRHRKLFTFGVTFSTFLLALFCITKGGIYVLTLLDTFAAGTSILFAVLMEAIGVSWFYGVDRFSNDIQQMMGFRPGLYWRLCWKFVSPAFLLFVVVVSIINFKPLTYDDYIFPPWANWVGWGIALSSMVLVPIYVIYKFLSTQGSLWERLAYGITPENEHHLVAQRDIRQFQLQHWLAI
Description: (§1) All transport experiments were carried out in HEK293 cells stably overexpressing human MATs or OCTs. […] All cells were regularly cultivated in DMEM supplemented with 10% (v/v) FCS, penicillin (100 U/mL) and streptomycin (100 μg/mL)and kept in culture for no longer than 30 passages.
(§2) For the uptake experiments, 300,000 cells were plated in poly-D-lysine precoated 24-well plates 48 h ahead of the transport experiment. On the day of experiment, cells were initially washed once with 37 °C pre-warmed HBSS+ (Hanks buffered salt solution supplemented with 10 mM HEPES) and subsequently incubated with the substrates dissolved in pre-warmed HBSS+ for exactly two minutes. Incubation was stopped by adding ice-cold HBSS+ followed by two washing steps. After this, cells were lysed with 80% acetonitrile containing 10 ng/mL milnacipran as internal standard for high-performance liquid chromatography coupled to tandem mass spectrometry (HPLC-MS/MS) analysis. For every experiment, two additional wells per cell line were lysed using RIPA buffer for protein quantification. Total protein was quantified using the bicinchoninic acid assay [42]. This was later used for normalization of the uptake data.
Intracellularly accumulated test substances were quantified by HPLC-MS/MS analysis using a Shimadzu Nexera HPLC system with a SIL-30AC autosampler, a CTO-20AC column oven, a LC-30AD pump, and a CBM-20A controller (Shimadzu, Kyoto, Japan). Stereoselective chromatography was carried out on a [sequence] CBH HPLC column (100 × 3 mm inner dimension with 5 μM particle size; Sigma-Aldrich, Darmstadt, Germany) with a corresponding 10 × 3 mm guard column. Reversed phased chromatography was carried out using an ammonium acetate (NH4Ac) buffered aqueous mobile phase with isopropyl alcohol (IPA) as organic solvent. […] The order of elution of the enantiomers was obtained from available reference literature [43] or by applying enantiopure reference compounds to the chiral HPLC. […] Given the structural similarity of the investigated substances and the fact that separation was performed on the same column with almost identical mobile phases, we assume that this order of elution for our compound set is always the (R)- before the (S)-enantiomer.
(§3) Detection was performed with an API 4000 tandem mass spectrometer (AB SCIEX, Darmstadt, Germany) operating in multiple-reaction-monitoring mode. Quantification was performed using the Analyst 1.6.2 software (AB SCIEX, Darmstadt, Germany) and quantified by comparison to standard curves with known concentrations.
(§4) All uptake data were normalized to protein content to account for variation in the number of seeded sells. Transporter-mediated net uptake was calculated by subtracting uptake into empty vector-transfected control cells from uptake into transporter-transfected cells. Kinetic parameters were then determined after non-linear regression following the Michaelis–Menten equation (v = vmax × [S]/(Km + [S])) using GraphPad Prism (Version 5.01 for Windows, GraphPad Software, La Jolla, CA, USA). Vmax refers to the maximum transport velocity and Km is defined as the substance concentration required to reach half of vmax. The intrinsic clearance Clint was calculated as the quotient of vmax over Km.

[3] = molecular target: DAT (Homo sapiens, UniProt Q01959); experiment: Stereoselective uptake into DAT-overexpressing HEK293 cells; settings: DAT; for Saturable net uptake: result in words;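 for all read-outs here: intracellular accumulation measured by chiral HPLC-MS/MS in stably transfected HEK293 cells, normalized to total protein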
Chain of DAT (Q01959 whole entry): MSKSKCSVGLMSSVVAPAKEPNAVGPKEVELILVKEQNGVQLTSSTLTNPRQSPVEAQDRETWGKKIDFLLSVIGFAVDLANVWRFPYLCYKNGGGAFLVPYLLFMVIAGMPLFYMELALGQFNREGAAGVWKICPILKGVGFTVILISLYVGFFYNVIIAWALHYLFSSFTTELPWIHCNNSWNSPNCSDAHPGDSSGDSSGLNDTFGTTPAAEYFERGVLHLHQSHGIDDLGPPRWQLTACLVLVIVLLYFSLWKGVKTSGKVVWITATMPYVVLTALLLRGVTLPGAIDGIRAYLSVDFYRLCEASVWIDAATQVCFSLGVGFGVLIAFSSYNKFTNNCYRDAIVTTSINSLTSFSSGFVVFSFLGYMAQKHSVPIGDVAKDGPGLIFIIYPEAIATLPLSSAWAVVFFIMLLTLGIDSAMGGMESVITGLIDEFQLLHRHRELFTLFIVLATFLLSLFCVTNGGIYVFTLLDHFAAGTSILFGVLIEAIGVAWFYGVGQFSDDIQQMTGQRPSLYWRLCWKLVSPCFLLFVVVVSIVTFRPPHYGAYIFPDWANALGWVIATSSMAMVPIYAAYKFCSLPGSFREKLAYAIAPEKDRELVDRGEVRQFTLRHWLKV

[4] = molecular target: T1, SERT; experiment: Stereoselective uptake into SERT-overexpressing HEK293 cells; settings: for Clint ± SEM: SERT, quotient of vmax over Km;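 for all read-outs here: uptake into HEK293 cells stably expressing human SERT over 2 min, enantiomers measured in cell lysate by chiral HPLC-MS/MS, normalized to total protein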
[5] = molecular target: T2, OCT1 (Homo sapiens, UniProt O15245); experiment: Stereoselective uptake into OCT1-overexpressing HEK293 cells; settings: for Vmax ± SEM: net uptake; for Clint ± SEM: quotient of vmax over Km; for Stereoselectivity Vmax: given as for (R) or for 1;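 for all read-outs here: enantiomers quantified inside cells by chiral HPLC-MS/MS, uptake normalized to total protein from bicinchoninic acid assay, substrates applied in HBSS+ buffer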
T2 sequence (O15245 1-554): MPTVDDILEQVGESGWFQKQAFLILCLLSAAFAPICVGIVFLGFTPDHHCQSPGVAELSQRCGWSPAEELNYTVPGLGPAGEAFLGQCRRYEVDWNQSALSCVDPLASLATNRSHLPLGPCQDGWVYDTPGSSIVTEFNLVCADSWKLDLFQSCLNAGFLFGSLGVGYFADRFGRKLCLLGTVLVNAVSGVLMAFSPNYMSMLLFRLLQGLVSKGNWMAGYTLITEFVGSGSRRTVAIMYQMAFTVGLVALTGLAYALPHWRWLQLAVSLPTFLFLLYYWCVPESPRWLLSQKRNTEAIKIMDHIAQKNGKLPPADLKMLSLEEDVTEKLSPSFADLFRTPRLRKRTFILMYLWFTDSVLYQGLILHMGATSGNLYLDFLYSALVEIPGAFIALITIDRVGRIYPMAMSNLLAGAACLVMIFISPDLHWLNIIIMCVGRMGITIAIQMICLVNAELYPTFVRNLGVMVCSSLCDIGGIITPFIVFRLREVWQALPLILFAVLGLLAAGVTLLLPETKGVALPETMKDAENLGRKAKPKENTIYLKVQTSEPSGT

[6] = molecular target: T3, OCT3 (Homo sapiens, UniProt O75751); experiment: Stereoselective uptake into OCT3-overexpressing HEK293 cells; settings: for Clint ± SEM: quotient of vmax over Km; for Stereoselectivity Vmax: given as for (R) or for 1;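 for all read-outs here: intracellular accumulation in HEK293 cells measured by chiral HPLC-MS/MS after a 2 min substrate exposure at 37 °C, uptake normalized to total protein (bicinchoninic acid assay)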
T3 sequence (O75751 1-556): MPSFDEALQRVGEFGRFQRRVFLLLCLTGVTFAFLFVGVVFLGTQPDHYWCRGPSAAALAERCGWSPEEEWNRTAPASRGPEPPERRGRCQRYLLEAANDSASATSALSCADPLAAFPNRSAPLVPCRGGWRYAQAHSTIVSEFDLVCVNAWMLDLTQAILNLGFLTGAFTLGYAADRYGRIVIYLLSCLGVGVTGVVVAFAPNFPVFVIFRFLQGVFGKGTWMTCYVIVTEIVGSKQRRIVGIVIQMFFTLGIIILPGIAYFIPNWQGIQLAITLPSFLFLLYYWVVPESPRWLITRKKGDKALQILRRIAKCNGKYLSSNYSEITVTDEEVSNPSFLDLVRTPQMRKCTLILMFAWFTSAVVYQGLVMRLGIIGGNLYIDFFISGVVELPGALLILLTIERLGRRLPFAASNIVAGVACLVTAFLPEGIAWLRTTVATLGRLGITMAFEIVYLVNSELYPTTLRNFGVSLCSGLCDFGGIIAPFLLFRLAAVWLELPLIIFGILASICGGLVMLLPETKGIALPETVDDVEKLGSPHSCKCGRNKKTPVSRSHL

[7] = molecular target: T4, OCT2 (Homo sapiens, UniProt O15244); experiment: Stereoselective uptake into OCT2 (wild-type)-overexpressing HEK293 cells; settings: for Vmax ± SEM: net uptake; for Clint ± SEM: OCT2, quotient of vmax over Km
T4 sequence (O15244 1-555 S270A): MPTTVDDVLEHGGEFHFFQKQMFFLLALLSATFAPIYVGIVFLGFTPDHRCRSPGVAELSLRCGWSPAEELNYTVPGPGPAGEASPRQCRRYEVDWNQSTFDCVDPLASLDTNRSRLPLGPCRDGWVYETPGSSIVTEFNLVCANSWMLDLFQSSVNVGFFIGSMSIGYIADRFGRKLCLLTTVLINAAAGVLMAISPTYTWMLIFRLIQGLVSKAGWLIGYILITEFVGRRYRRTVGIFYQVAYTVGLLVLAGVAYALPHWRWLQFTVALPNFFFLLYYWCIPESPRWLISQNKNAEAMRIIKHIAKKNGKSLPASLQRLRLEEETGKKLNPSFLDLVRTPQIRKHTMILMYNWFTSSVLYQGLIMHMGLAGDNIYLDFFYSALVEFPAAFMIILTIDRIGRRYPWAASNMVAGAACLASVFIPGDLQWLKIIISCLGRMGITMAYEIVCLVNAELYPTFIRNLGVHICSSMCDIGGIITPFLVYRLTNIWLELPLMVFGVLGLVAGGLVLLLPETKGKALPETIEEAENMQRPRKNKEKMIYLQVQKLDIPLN
Description: as §1, §2
(§5) Intracellularly accumulated test substances were quantified by HPLC-MS/MS analysis using a Shimadzu Nexera HPLC system with a SIL-30AC autosampler, a CTO-20AC column oven, a LC-30AD pump, and a CBM-20A controller (Shimadzu, Kyoto, Japan). Stereoselective chromatography was carried out on a [sequence] CBH HPLC column (100 × 3 mm inner dimension with 5 μM particle size; Sigma-Aldrich, Darmstadt, Germany) with a corresponding 10 × 3 mm guard column. Reversed phased chromatography was carried out using an ammonium acetate (NH4Ac) buffered aqueous mobile phase with isopropyl alcohol (IPA) as organic solvent. […] The order of elution of the enantiomers was obtained from available reference literature [43] or by applying enantiopure reference compounds to the chiral HPLC. […] However, in every other case where the order of elution was available, the (R)-enantiomer eluted first. Given the structural similarity of the investigated substances and the fact that separation was performed on the same column with almost identical mobile phases, we assume that this order of elution for our compound set is always the (R)- before the (S)-enantiomer.
as §3, §4
(§6) HEK293 cells stably overexpressing wild-type or mutant OCT2 were incubated with 100 μM racemic substance for two minutes.

[8] = molecular target: T5, OCT2 (Homo sapiens, UniProt O15244, S270A); experiment: as above; settings: OCT2, ratio between enantiomers
T5 sequence (O15244 1-555 S270A): T4 sequence (O15244 1-555 S270A)
Description: as §1, §2, §5, §3, §4, §6

[9] = test system: OCT2 A270S variant; experiment: Stereoselective uptake into OCT2 A270S variant-overexpressing HEK293 cells; settings: 100 μM racemic substance, two minutes; for Transporter selectivity: OCT2 wild-type versus A270S;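 for all read-outs here: uptake into HEK293 cells stably overexpressing human OCT2 variants, intracellular enantiomers quantified by chiral HPLC-MS/MS and normalized to total protein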
[10] = HEK293 cells overexpressing human NET, racemic substrate, two minutes
[11] = HEK293 cells overexpressing human OCT1, racemic substrate, two minutes
[12] = OCT3, ratio between enantiomers
[13] = HEK293 cells overexpressing human OCT2, racemic substrate, two minutes
[14] = given as for (R) or for 1 (first-eluting)
[15] = OCT1, ratio between enantiomers
[16] = OCT3, ratio between enantiomers, given as for (R) or for 1 (first-eluting)
[17] = ratio between enantiomers, given as for (S) or for 2

SMILES: C[C@@H]1NCCc2cc(O)c(O)cc21 [Salsolinol-1, Salsolinol]
- Stereoselectivity ClInt [1]: 2.48 fold
- Vmax ± SEM [2, 10]: 112 pmol × mg Protein^−1 × min^−1
- Clint ± SEM ([2]; NET): 1.24 mL × g Protein^−1 × min^−1
- Stereoselectivity ClInt ([2]; NET, ratio between enantiomers): 1.19 fold
- Stereoselectivity Vmax ([2]; NET, ratio between enantiomers): 1.35 fold
- Stereoselectivity Km ([2]; NET, ratio between enantiomers, given as for (S) or for 2 (second-eluting)): 1.13 fold
- Km ([2]; read-out: Km ± SEM, HEK293 cells overexpressing human NET, racemic substrate, two minutes, net uptake minus empty vector control): 90.1 µM
- Saturable net uptake [3]: No saturable net uptake
- Stereoselectivity Km [4]: 1.85 fold
- Stereoselectivity Vmax [4]: 1.34 fold
- Vmax ± SEM ([4]; HEK293 cells overexpressing human SERT, racemic substrate, two minutes, net uptake): 229 pmol × mg Protein^−1 × min^−1
- Clint ± SEM [4]: 1.77 mL × g Protein^−1 × min^−1
- Km ([4]; read-out: Km ± SEM, HEK293 cells overexpressing human SERT, racemic substrate, two minutes, net uptake minus empty vector control): 129 µM
- Vmax ± SEM [5, 11]: 1450 pmol × mg Protein^−1 × min^−1
- Clint ± SEM ([5]; OCT1): 10.9 mL × g Protein^−1 × min^−1
- Stereoselectivity ClInt ([5]; OCT1, ratio between enantiomers, given as for (R) or for 1 (also 1.00-fold for 1/2)): 1.00 fold
- Km ([5]; read-out: Km ± SEM, HEK293 cells overexpressing human OCT1, racemic substrate, two minutes, net uptake minus empty vector control): 133 µM
- Stereoselectivity ClInt [6]: 1.21 fold
- Vmax ± SEM ([6]; HEK293 cells overexpressing human OCT3, racemic substrate, two minutes, net uptake): 705 pmol × mg Protein^−1 × min^−1
- Clint ± SEM ([6]; OCT3): 3.80 mL × g Protein^−1 × min^−1
- Stereoselectivity Vmax [6, 12]: 1.01 fold
- Stereoselectivity Km ([6]; OCT3, ratio between enantiomers, given as for (S) or for 2 (second-eluting)): 1.20 fold
- Km ([6]; read-out: Km ± SEM, HEK293 cells overexpressing human OCT3, racemic substrate, two minutes, net uptake minus empty vector control): 186 µM
- Vmax ± SEM [7, 13]: 9083 pmol × mg Protein^−1 × min^−1
- Clint ± SEM [7]: 40.9 mL × g Protein^−1 × min^−1
- Km ([7]; read-out: Km ± SEM, HEK293 cells overexpressing human OCT2, racemic substrate, two minutes, net uptake minus empty vector control): 222 µM
- Stereoselectivity Km [8, 14]: 1.04 fold
- Stereoselectivity ClInt ([8]; given as for (S) or for 2): 1.05 fold
- Stereoselectivity Vmax ([8]; given as for (S) or for 2): 1.01 fold
- Net uptake by A270S variant in comparison to the wild-type [9]: 66%
- Transporter selectivity ([9]; given as for WT, listed as (R)-Salsolinol): 1.50 fold

SMILES: CNCC(O)c1ccc(O)c(OC)c1 (single isomer, unassigned) [Metanephrine-2, Metanephrine]
- Stereoselectivity ClInt ([1]; human): 1.01 fold
- Saturable net uptake ([2]; NET, result in words): No saturable net uptake
- Saturable net uptake [3]: No saturable net uptake
- Stereoselectivity Km [4]: 1.09 fold
- Stereoselectivity Vmax [4]: 1.08 fold
- Clint ± SEM [4]: 0.57 mL × g Protein^−1 × min^−1
- Vmax ± SEM [5, 11]: 1018 pmol × mg Protein^−1 × min^−1
- Clint ± SEM ([5]; OCT1): 6.97 mL × g Protein^−1 × min^−1
- Stereoselectivity Vmax [5, 15]: 1.06 fold
- Stereoselectivity Km ([5]; OCT1, ratio between enantiomers, given as for (S) or for 2 (second-eluting)): 1.09 fold
- Stereoselectivity ClInt ([5]; human, 2 min): 1.16 fold
- Clint ± SEM ([6]; OCT3): 26.0 mL × g Protein^−1 × min^−1
- Stereoselectivity Vmax [6, 12]: 1.19 fold
- Stereoselectivity ClInt ([6]; OCT3, ratio between enantiomers, given as for (R) or for 1 (also 1.00-fold for 1/2)): 1.00 fold
- Stereoselectivity Km [6, 16]: 1.19 fold
- Vmax ± SEM [7, 13]: 528 pmol × mg Protein^−1 × min^−1
- Clint ± SEM [7]: 7.75 mL × g Protein^−1 × min^−1
- Stereoselectivity ClInt ([8]; given as for (R) or for 1): 2.66 fold
- Stereoselectivity Vmax ([8]; given as for (R) or for 1): 2.13 fold
- Stereoselectivity Km ([8]; given as for (S) or for 2 (second-eluting)): 1.25 fold
- Transporter selectivity ([9]; given as for A270S, listed as (S)-Metanephrine): 1.47 fold

SMILES: NCC(O)c1cccc(O)c1 (single isomer, unassigned) [Norphenylephrine-2, Norphenylephrine]
- Stereoselectivity ClInt ([1]; human): 1.53 fold
- Vmax ± SEM [2, 10]: 531 pmol × mg Protein^−1 × min^−1
- Clint ± SEM ([2]; NET): 230 mL × g Protein^−1 × min^−1
- Stereoselectivity ClInt ([2]; NET, ratio between enantiomers): 1.21 fold
- Stereoselectivity Vmax ([2]; NET, ratio between enantiomers): 1.25 fold
- Clint ± SEM ([3]; quotient of vmax over Km): 167 mL × g Protein^−1 × min^−1
- Stereoselectivity ClInt [3, 17]: 1.29 fold
- Stereoselectivity Vmax [3, 17]: 1.55 fold
- Stereoselectivity Km ([3]; ratio between enantiomers, given as for (S) or for 2 (second-eluting)): 1.20 fold
- Stereoselectivity Km [4]: 1.20 fold
- Stereoselectivity Vmax [4]: 1.27 fold
- Clint ± SEM [4]: 1.83 mL × g Protein^−1 × min^−1
- Clint ± SEM ([5]; OCT1): 3.84 mL × g Protein^−1 × min^−1
- Stereoselectivity Vmax [5, 15]: 1.08 fold
- Stereoselectivity Km ([5]; OCT1, ratio between enantiomers, given as for (R) or for 1 (first-eluting)): 1.03 fold
- Stereoselectivity ClInt ([5]; human, 2 min): 1.05 fold
- Clint ± SEM ([6]; OCT3): 3.32 mL × g Protein^−1 × min^−1
- Stereoselectivity Vmax [6, 12]: 3.88 fold
- Stereoselectivity Km [6, 16]: 1.17 fold
- Stereoselectivity ClInt ([6]; human, 2 min): 3.32 fold
- Clint ± SEM [7]: 26.07 mL × g Protein^−1 × min^−1
- Stereoselectivity ClInt ([8]; given as for (R) or for 1): 1.40 fold
- Stereoselectivity Vmax ([8]; given as for (R) or for 1): 2.19 fold
- Stereoselectivity Km [8, 14]: 1.57 fold
- Transporter selectivity ([9]; given as for WT, listed as (S)-Norphenylephrine): 1.12 fold
